Results reported in the supplement of paper PMC6580486.

Assays:
[1] = system: VA-ES-BJ
Method: (§1)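 60-agent targeted drug screens (Drug Screen V3 on epithelioid sarcoma cultures PCB490-3/4/5, PCB495, EPS cell lines ESX, VA-ES-BJ, FU-EPS-1 and SkMc myoblasts; PPTI screen v2.1 on human UPS PCB197 and canine UPS S1-12). 384-well plates, 72 h, CellTiter-Glo viability; IC50 by Hill curve fit. 10000 nM = no IC50 achieved (top reported value).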

[2] = system: PCB-495 (human epithelioid sarcoma primary culture)
Method: as §1

[3] = system: PCB-490-5 (human epithelioid sarcoma primary culture)
Method: as §1

[4] = system: pcb-00197 (human undifferentiated pleomorphic sarcoma culture)
Method: as §1

[5] = system: FU-EPS-1
Method: as §1

[6] = system: PCB-490-4 (human epithelioid sarcoma primary culture)
Method: as §1

[7] = system: s1-12 (canine undifferentiated pleomorphic sarcoma culture)
Method: as §1

[8] = system: PCB-490-3 (human epithelioid sarcoma primary culture)
Method: as §1

[9] = system: ESX
Method: as §1

[10] = system: SkMc
Method: as §1

Structure (SMILES) | IC50 cell viability [1] | IC50 cell viability [2] | IC50 cell viability [3] | IC50 cell viability [4] | IC50 cell viability [5] | IC50 cell viability [6] | IC50 cell viability [7] | IC50 cell viability [8] | IC50 cell viability [9] | IC50 cell viability [10]
CCOc1cc(C(C)(C)C)ccc1C1=N[C@@](C)(c2ccc(Cl)cc2)[C@@](C)(c2ccc(Cl)cc2)N1C(=O)N1CCN(CCCS(C)(=O)=O)CC1 | > 10 µM | > 10 µM | > 10 µM | > 10 µM | > 10 µM | > 10 µM | > 10 µM | > 10 µM | > 10 µM | > 10 µM
CC(C)(C(=O)NCC(F)(F)C(F)(F)F)C(=O)N[C@@H]1C(=O)Nc2ccccc2-c2ccccc21 | > 10 µM | > 10 µM | > 10 µM | > 10 µM | > 10 µM | > 10 µM | > 10 µM | > 10 µM | > 10 µM | 3.76 µM
COc1cc2nc(N3CCCN(C)CC3)nc(NC3CCN(Cc4ccccc4)CC3)c2cc1OC | 6.57 µM | 1.38 µM | 6.69 µM | 6.05 µM | 1.01 µM | 1.82 µM | 1.72 µM | 3.14 µM | 0.2 µM | 0.15 µM
Nc1ccccc1NC(=O)c1ccc(CNC(=O)OCc2cccnc2)cc1 [Entinostat] | 1.18 µM | > 10 µM | > 10 µM | > 10 µM | 2.69 µM | > 10 µM | 0.92 µM | > 10 µM | > 10 µM | > 10 µM
CNC(=O)CN1CCC(Oc2cc3c(Nc4cccc(Cl)c4F)ncnc3cc2OC)CC1 [AZD8931] | > 10 µM | > 10 µM | > 10 µM | – | > 10 µM | > 10 µM | – | > 10 µM | 4.75 µM | > 10 µM
CCc1cnn2c(NCc3ccc[n+]([O-])c3)cc(N3CCCC[C@H]3CCO)nc12 [Dinaciclib] | 0.01 µM | 0.01 µM | > 10 µM | > 10 µM | > 10 µM | 0.1 µM | 0.01 µM | > 10 µM | 0.01 µM | > 10 µM
C[C@]1(O)C[C@@H](c2nc(-c3ccc4ccc(-c5ccccc5)nc4c3)c3c(N)nccn32)C1 [OSI-906] | > 10 µM | > 10 µM | > 10 µM | > 10 µM | > 10 µM | > 10 µM | 1.07 µM | > 10 µM | 0.02 µM | > 10 µM
CN1CCC(CNc2ccc3ncc(-c4cccc(OC(F)(F)F)c4)n3n2)CC1 [SGI-1776] | 4.81 µM | 7.51 µM | 1.85 µM | – | 1.7 µM | 2.03 µM | – | 4.5 µM | 0.15 µM | 2.84 µM
